Test results from US20260207627A1, “PHYTOECDYSONES FOR USE IN THE TREATMENT OF INFLAMMATORY RESPIRATORY DISEASES” (BIOPHYTIS, priority 2022, published 2026).

Tests used:
5-HT2A = assay: Real-time PCR gene expression in bronchi after chronic treatment; format: in vivo, mouse; settings: healthy or asthmatic mice, chronic treatment 50 mg/kg/day
Procedure: (§1) Seven-week old mice were sensitized by cutaneous route to house dust mite (HDM) extracts on DO, 7, 14 and 21. After this skin sensitization phase to the allergen, the mice receive the allergen by the nasal route (challenge phase) on D27, 28, 29, 34, 35 and 36 to induce bronchial exacerbation. This severe allergic asthma model has been characterized as mimicking human pathology ([…] et al. Thorax 2021). BIG101 (batch RL11T1204A0) was administered to the mice in drinking water 7 days a week, at a dose of 50 mg/kg/day. The drinking water containing BI0101 was replaced twice weekly until the animals were sacrificed. On […], the bronchi of healthy non-asthmatic mice (control; n=10), non-asthmatic control mice treated with BI0101 (controls+BIO101; n=10), asthmatic mice (Asthma; n=10) and asthmatic mice treated with BI0101 (Asthma+BIO101; n=10) were collected. After RNA extraction from these tissues (Trizol©, ThermoFisher cat. 15596018), an analysis of serotonin receptor (5-HT1A, 5-HT1B, 5-HT2A, 5-HT2B and 5-HT7) and serotonin transporter (5HTT) expression was evaluated with real-time PCR (TaqManTM, Universal PCR MasterMix, ThermoFisher cat. 4304437). The list of ThermoFisher Scientific commercial test references used for real-time PCR to obtain the results for each of the genes is given in Table 1 below: […]

5-HT2B = assay: as above; format: in vivo, mouse; settings: healthy or asthmatic mice, chronic treatment 50 mg/kg/day
Procedure: as §1

5-HT1B = assay: as above; format: in vivo, mouse; settings: healthy or asthmatic mice, chronic treatment 50 mg/kg/day
Procedure: as §1

5-HT1A receptor = assay: as above; format: in vivo, mouse; settings: chronic treatment 50 mg/kg/day, D38, p<0.05
Procedure: as §1

5-HT7 = assay: as above; format: in vivo, mouse; settings: healthy or asthmatic mice, chronic treatment 50 mg/kg/day
Procedure: as §1

[1] = test system: mouse model of severe allergic asthma; assay: Respiratory function by plethysmography (Penh) in response to methacholine; format: in vivo
Procedure: (§2) Seven-week old mice were sensitized by cutaneous route to house dust mite (HDM) extracts on DO, 7, 14 and 21. After this skin sensitization phase to the allergen, the mice receive the allergen by the nasal route (challenge phase) on D27, 28, 29, 34, 35 and 36 to induce bronchial exacerbation. This severe allergic asthma model has been characterized as mimicking human pathology (Dilasser et al. Thorax 2021).
(§3) BIG101 (batch RL11T1204A0) was administered to the mice in drinking water 7 days a week, at a dose of 50 mg/kg/day. The drinking water containing BI0101 was replaced twice weekly until the animals were sacrificed.
In order to study whether the reduction of inflammation in BALF could induce functional improvement after severe asthma induction, respiratory function was evaluated by plethysmography. This technique makes it possible to carry out a longitudinal study of respiratory capacity and also expiratory pause time (Penh) non-invasively. Breathing-induced flow and pressure changes are measured before and after exposure to nebulization with increasing doses of NaCl followed by methacholine. […]
The pressure variations measured relative to a reference chamber make it possible to define various respiratory parameters such as inspiratory and expiratory pressure peaks and times, and also a unitless parameter referred to as Penh (enhanced Pause) which makes it possible to evaluate bronchoconstriction. Indeed, the Penh value, calculated from the pressure signal in the chamber (Pb), is an important index to obtain, because changes in the Penh value evolve in parallel with those of respiratory resistance and therefore it represents a predictive parameter of changes in resistive properties of the respiratory system (Hamelmann et al., 1997; Bergren, 2001; Onclinx et al., 2003). The following values were calculated from the filtered Pb: the maximum change in Pb during expiration (PEP for “Peak Expiratory Pressure”), the maximum change in Pb during inspiration (PIP for “Peak Inspiratory Pressure”), and the time interval (TR). The Penh value was then calculated as follows: […]

bronchial ring [2] = assay: Acute administration in the vessel containing the bronchial ring, contractile response to methacholine; design: species or system mouse; settings: p=ns vs internal control without BI0101
5-HTT = assay: Real-time PCR gene expression in bronchi after chronic treatment; format: in vivo, mouse; settings: healthy or asthmatic mice, chronic treatment 50 mg/kg/day
Procedure: as §2, with “([…]” for “(Dilasser”, “2021). BIG101 (batch RL11T1204A0) was administered to the mice in drinking water 7 days a week, at a dose of 50 mg/kg/day. The drinking water containing BI0101 was replaced twice weekly until the animals were sacrificed.” for “2021).”

[3] = test system: mouse model of severe allergic asthma; assay: Bronchoalveolar fluid cellularity; format: in vivo
Procedure: Seven-week old mice were sensitized by cutaneous route to house dust mite (HDM) extracts on DO, 7, 14 and 21. After this skin sensitization phase to the allergen, the mice receive the allergen by the nasal route (challenge phase) on D27, 28, 29, 34, 35 and 36 to induce bronchial exacerbation. This severe allergic asthma model has been characterized as mimicking human pathology ([…] et al. Thorax 2021). BIG101 (batch RL11T1204A0) was administered to the mice in drinking water 7 days a week, at a dose of 50 mg/kg/day. The drinking water containing BI0101 was replaced twice weekly until the animals were sacrificed. On […], sterile PBS (between 200 μL and 1 mL) was administered by the intratracheal route to the mice using a catheter. The bronchoalveolar fluid (BALF) cells and supernatant are retrieved and separated by centrifugation. The total number of cells was counted on Kova slides by optical microscopy. The cellularity of each sample was evaluated by calculating the ratio of the total number of cells counted, divided by the volume of bronchoalveolar fluid. The cellularity represents the infiltrate of immune cells (macrophages, lymphocytes, eosinophils and neutrophils).

murine bronchial ring [4] = assay: Ex vivo bronchial ring contraction (Mulvany myograph) after chronic treatment, methacholine-induced bronchoconstriction; format: in vivo, mouse; settings: asthmatic mice
Procedure: as §2, §3
(§4) The evaluation of the effect of chronic administration of BI0101 treatment on ex vivo murine bronchial ring contraction was carried out in an isolated organ chamber (isometric tension measurement, Mulvany myograph, DMT, Hinnerup, Denmark) (André-Grégoire et al., 2018).
(§5) The bronchi are collected, cleaned, cut into rings and set up in the Mulvany myograph. The rings are pre-stretched and then stimulated with 60 mM KCl until the contractile response amplitude has stabilized (2 or 3 stimulations) before the start of each experimental protocol. […]

bronchial ring [5] = assay: Acute administration in the vessel containing the bronchial ring, contractile response to serotonin; design: species or system mouse; settings: p=ns vs internal control without BI0101
murine bronchial ring [6] = assay: Ex vivo bronchial ring contraction (Mulvany myograph) after chronic treatment, serotonin-induced bronchoconstriction; format: in vivo, mouse; settings: asthmatic mice
Procedure: as §2, §3, §4, §5

[7] = test system: mouse model of severe allergic asthma; assay: Histological analysis of lung sections stained with hematoxylin and eosin; format: in vivo; settings: chronic treatment 50 mg/kg/day
Procedure: as §2, §3

[8] = chronic treatment 50 mg/kg/day in drinking water, D38, Asthma vs Asthma+BIO101 p<0.0001

Q: Which results are given for `CC(C)(O)CC[C@@H](O)[C@](C)(O)[C@H]1CC[C@@]2(O)C3=CC(=O)[C@@H]4C[C@@H](O)[C@@H](O)C[C@]4(C)[C@H]3CC[C@]12C` [BI0101, 20-hydroxyecdysone]?
A: 5-HT2A gene expression in bronchi (5-HT2A): does not induce any modification; 5-HT2B gene expression in bronchi (5-HT2B): does not induce any modification; 5-HT1B gene expression in bronchi (5-HT1B): does not induce any modification; 5-HT1A receptor gene expression decrease in bronchi (5-HT1A receptor; asthmatic mice (asthma+BIO101)): −69±3%; 5-HT1A receptor gene expression decrease in bronchi (5-HT1A receptor; healthy mice (control+BIO101)): −49%±12%; 5-HT7 gene expression in bronchi (5-HT7): does not induce any modification; Penh value ([1]; asthmatic mice treated with BI0101, 50 mg/kg/day, 40 mg/ml of methacholine): 9.81±1.1; reduction of the Penh value ([1]; asthmatic mice treated with BI0101 vs asthmatic mice, 40 mg/ml of methacholine, p<0.05): 18.1%; effect on respiratory function (Penh, methacholine aerosol) ([1]; healthy control mice treated with BI0101): does not appear to have an effect; contractile response to methacholine (bronchial ring [2]): 0.41±0.25 mN; 5-HTT (serotonin transporter) gene expression in bronchi (5-HTT): does not induce any modification; change of BALF cellularity (inflammation present in BALFs) ([3]; asthmatic mice treated with BI0101 vs asthmatic mice, D38, p=ns): −39.8%; BALF cellularity (total number of cells divided by volume of bronchoalveolar fluid) ([3]; control mice treated with BI0101, D38, p=ns vs untreated control): 260±64; methacholine-induced bronchoconstriction (murine bronchial ring [4]; [8]): significantly decreases; prevention of exacerbated bronchial airway reactivity (methacholine) (murine bronchial ring [4]; chronic treatment 50 mg/kg/day, Asthma+BIO101 vs Control p=0.0025): does not prevent; contractile response to serotonin (bronchial ring [5]): 0.29±0.14 mN; serotonin-induced bronchoconstriction (murine bronchial ring [6]; [8]): significantly reduces; prevention of exacerbated bronchial airway reactivity (serotonin) (murine bronchial ring [6]; chronic treatment 50 mg/kg/day, Asthma+BIO101 vs Control p=0.9997): completely prevents; increase in bronchial muscle mass and epithelial barrier dysfunction associated with severe asthma ([7]; asthmatic mice): appear to be less substantial; peribronchial and perivascular inflammation ([7]; asthmatic mice): reduces; effect on lung histology ([7]; healthy mice (control)): has no effect
